This is an account of results in patent US12540131B2 (Merck Sharp & Dohme LLC, priority 2019, dated 2026).

Where only a bound is given, the exact number is not on record here.

Chain of GST tagged truncated human mutant G2019S LRRK2 (Q5S007 970-2527 G2019S): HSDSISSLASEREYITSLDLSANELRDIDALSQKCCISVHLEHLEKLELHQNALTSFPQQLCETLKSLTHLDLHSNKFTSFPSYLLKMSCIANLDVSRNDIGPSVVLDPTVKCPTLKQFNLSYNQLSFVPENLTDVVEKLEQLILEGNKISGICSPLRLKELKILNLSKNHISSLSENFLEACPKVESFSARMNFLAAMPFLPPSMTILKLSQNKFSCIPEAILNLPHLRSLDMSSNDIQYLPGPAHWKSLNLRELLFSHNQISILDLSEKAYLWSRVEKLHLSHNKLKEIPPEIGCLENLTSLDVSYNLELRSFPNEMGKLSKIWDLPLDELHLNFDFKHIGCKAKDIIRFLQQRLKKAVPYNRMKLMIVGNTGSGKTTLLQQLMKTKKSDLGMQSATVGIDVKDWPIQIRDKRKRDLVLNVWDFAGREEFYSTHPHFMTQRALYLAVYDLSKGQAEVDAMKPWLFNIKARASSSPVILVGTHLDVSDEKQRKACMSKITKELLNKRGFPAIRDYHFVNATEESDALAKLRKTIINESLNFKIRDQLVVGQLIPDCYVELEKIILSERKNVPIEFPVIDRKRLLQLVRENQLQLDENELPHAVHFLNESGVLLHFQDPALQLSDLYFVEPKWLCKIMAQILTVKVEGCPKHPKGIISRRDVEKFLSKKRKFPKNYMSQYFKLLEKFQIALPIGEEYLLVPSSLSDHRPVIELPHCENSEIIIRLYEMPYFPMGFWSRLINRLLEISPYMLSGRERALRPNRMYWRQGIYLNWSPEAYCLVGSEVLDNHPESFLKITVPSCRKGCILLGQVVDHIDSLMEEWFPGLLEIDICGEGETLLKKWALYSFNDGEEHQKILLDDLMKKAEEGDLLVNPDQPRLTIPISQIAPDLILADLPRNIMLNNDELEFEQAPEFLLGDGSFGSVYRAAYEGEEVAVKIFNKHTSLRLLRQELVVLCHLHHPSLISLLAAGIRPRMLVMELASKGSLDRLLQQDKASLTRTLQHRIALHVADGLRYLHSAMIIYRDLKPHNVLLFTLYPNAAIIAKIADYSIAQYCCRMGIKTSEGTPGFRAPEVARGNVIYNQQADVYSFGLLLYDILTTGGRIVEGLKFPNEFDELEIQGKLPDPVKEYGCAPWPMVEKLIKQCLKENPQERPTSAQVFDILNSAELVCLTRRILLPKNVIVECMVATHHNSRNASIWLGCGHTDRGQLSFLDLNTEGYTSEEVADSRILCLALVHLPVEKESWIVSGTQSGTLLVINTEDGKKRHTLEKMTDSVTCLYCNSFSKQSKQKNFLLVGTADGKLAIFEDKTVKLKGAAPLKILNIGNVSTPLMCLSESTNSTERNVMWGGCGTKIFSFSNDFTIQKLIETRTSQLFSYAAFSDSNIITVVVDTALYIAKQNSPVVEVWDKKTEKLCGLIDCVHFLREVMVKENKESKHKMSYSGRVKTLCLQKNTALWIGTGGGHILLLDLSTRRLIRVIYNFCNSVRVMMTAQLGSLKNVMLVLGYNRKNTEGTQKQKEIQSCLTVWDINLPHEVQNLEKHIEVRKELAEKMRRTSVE

One experiment concerns the target GST tagged truncated human mutant G2019S LRRK2 (Homo sapiens (Human), UniProt Q5S007, G2019S). Briefly: LRRK2 Km ATP LanthaScreen Assay. It counts as biochemical. As to conditions: G2019S LRRK2, 134 μM ATP (Km ATP), mean values. In outline:
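Enzyme (GST-tagged, truncated) was preincubated with compound for 15 min at RT in 50 mM Tris pH 8.5, 10 mM MgCl2, 0.01% Brij-35, 1 mM EGTA, 2 mM DTT and 0.05 mM orthovanadate. Fluorescein-LRRKtide and 134 μM ATP (Km) were then added for 90 min. EDTA and Tb-anti-pERM antibody stopped the reaction; the TR-FRET 520/495 ratio gave 4-parameter IC50s, reported as mean pIC50.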
(In general: Time-resolved FRET reads energy transfer from a long-lived donor to a nearby acceptor.)
In the case of `FC(F)Cn1ncc(Nc2ncc3cc(Cl)c([C@@H]4CCN(C5COC5)C[C@H]4F)cc3n2)c1Cl` (single isomer, unassigned) [Ex-4.37, (3S,4S) or (3R,4R) 6-chloro-N-[5-chloro-1-(2,2-difluoroethyl)-1H-pyrazol-4-yl]-7-[3-fluoro-1-(oxetan-3-yl)piperidin-4-yl]quinazolin-2-amine], the “LRRK2 pIC50” value turned out to be 9.15.
Take `FC(F)Cn1ncc(Nc2ncc3cc(Cl)c([C@H]4CCN(C5COC5)C[C@@H]4F)cc3n2)c1Cl` (single isomer, unassigned) [Ex-4.38, (3S,4S) or (3R,4R) 6-chloro-N-[5-chloro-1-(2,2-difluoroethyl)-1H-pyrazol-4-yl]-7-[3-fluoro-1-(oxetan-3-yl)piperidin-4-yl]quinazolin-2-amine]: the “LRRK2 pIC50” value stood at 9.11.
Regarding `CN1CC[C@@H](c2cc3nc(Nc4cnn(C5CC5)c4Cl)ncc3cc2Cl)[C@H](F)C1` (single isomer, unassigned) [Ex-4.39, (3S,4S) or (3R,4R) 6-chloro-N-(5-chloro-1-cyclopropyl-1H-pyrazol-4-yl)-7-(3-fluoro-1-methylpiperidin-4-yl)quinazolin-2-amine], the “LRRK2 pIC50” value was over 9.20.
As to `CN1CC[C@H](c2cc3nc(Nc4cnn(C5CC5)c4Cl)ncc3cc2Cl)[C@@H](F)C1` (single isomer, unassigned) [Ex-4.40, (3S,4S) or (3R,4R) 6-chloro-N-(5-chloro-1-cyclopropyl-1H-pyrazol-4-yl)-7-(3-fluoro-1-methylpiperidin-4-yl)quinazolin-2-amine], the “LRRK2 pIC50” value is given as over 9.20.
Regarding `F[C@H]1CN(C2COC2)C[C@@H]1c1cc2nc(Nc3cnn(C4CC4)c3Cl)ncc2cc1Cl` (single isomer, unassigned) [Ex-4.41, (3S,4R) or (3R,4S) 6-chloro-N-(5-chloro-1-cyclopropyl-1H-pyrazol-4-yl)-7-[4-fluoro-1-(oxetan-3-yl)pyrrolidin-3-yl]quinazolin-2-amine], the “LRRK2 pIC50” value is 7.31.
Take `F[C@@H]1CN(C2COC2)C[C@H]1c1cc2nc(Nc3cnn(C4CC4)c3Cl)ncc2cc1Cl` (single isomer, unassigned) [Ex-4.42, (3S,4R) or (3R,4S) 6-chloro-N-(5-chloro-1-cyclopropyl-1H-pyrazol-4-yl)-7-[4-fluoro-1-(oxetan-3-yl)pyrrolidin-3-yl]quinazolin-2-amine]: the “LRRK2 pIC50” value worked out at 7.21.
Same read-out and setting: with `CC(C)(O)Cn1ncc(Nc2ncc3cc(Cl)c([C@@H]4CCN(C5COC5)C[C@H]4F)cc3n2)c1Cl` (single isomer, unassigned) [Ex-4.43, (3S,4S) or (3R,4R) 1-[5-chloro-4-({6-chloro-7-[3-fluoro-1-(oxetan-3-yl)piperidin-4-yl]quinazolin-2-yl}amino)-1H-pyrazol-1-yl]-2-methylpropan-2-ol] the figure was 9.16; with `CC(C)(O)Cn1ncc(Nc2ncc3cc(Cl)c([C@H]4CCN(C5COC5)C[C@@H]4F)cc3n2)c1Cl` (single isomer, unassigned) [Ex-4.44, (3S,4S) or (3R,4R) 1-[5-chloro-4-({6-chloro-7-[3-fluoro-1-(oxetan-3-yl)piperidin-4-yl]quinazolin-2-yl}amino)-1H-pyrazol-1-yl]-2-methylpropan-2-ol], over 9.20.
Same read-out and setting: with `CC1OCC1N1CCC(c2cc3nc(Nc4cnn(C5CC5)c4Cl)ncc3cc2Cl)CC1` (single isomer, unassigned) [Ex-4.46, (2R,3R) or (2S,3S) or (2S,3R) or (2R,3S) 6-chloro-N-(5-chloro-1-cyclopropyl-1H-pyrazol-4-yl)-7-[1-(2-methyloxetan-3-yl)piperidin-4-yl]quinazolin-2-amine] the figure was 9.13; with `CC1OCC1N1CCC(c2cc3nc(Nc4cnn(C5CC5)c4Cl)ncc3cc2Cl)CC1` (single isomer, unassigned) [Ex-4.47, (2R,3R) or (2S,3S) or (2S,3R) or (2R,3S) 6-chloro-N-(5-chloro-1-cyclopropyl-1H-pyrazol-4-yl)-7-[1-(2-methyloxetan-3-yl)piperidin-4-yl]quinazolin-2-amine], 7.62; with `Cc1cc(Nc2ncc3cc(Cl)c([C@@H]4CCN(C5COC5)C[C@H]4F)cc3n2)sn1` (single isomer, unassigned) [Ex-4.50, (3S,4S) or (3R,4R) 6-chloro-7-[3-fluoro-1-(oxetan-3-yl)piperidin-4-yl]-N-(3-methyl-1,2-thiazol-5-yl)quinazolin-2-amine], over 9.20.
Turning to `Cc1cc(Nc2ncc3cc(Cl)c([C@H]4CCN(C5COC5)C[C@@H]4F)cc3n2)sn1` (single isomer, unassigned) [Ex-4.51, (3S,4S) or (3R,4R) 6-chloro-7-[3-fluoro-1-(oxetan-3-yl)piperidin-4-yl]-N-(3-methyl-1,2-thiazol-5-yl)quinazolin-2-amine], the “LRRK2 pIC50” value was over 9.20.
Same read-out and setting: with `Cc1cc(Nc2ncc3cc(Cl)c([C@H]4CCN(C)C[C@@H]4F)cc3n2)sn1` (single isomer, unassigned) [Ex-4.53, (3S,4S) or (3R,4R) 6-chloro-7-(3-fluoro-1-methylpiperidin-4-yl)-N-(3-methyl-1,2-thiazol-5-yl)quinazolin-2-amine] the figure was over 9.20; with `CC(n1ncc(Nc2ncc3cc(Cl)c([C@@H]4CCN(C)C[C@H]4F)cc3n2)c1Cl)C(C)(C)O` (single isomer, unassigned) [Ex-4.60, (R)(3S,4S) or (R)(3R,4R) or (S)(3S,4S) or (S)(3R,4R) 3-(5-chloro-4-{[6-chloro-7-(3-fluoro-1-methylpiperidin-4-yl)quinazolin-2-yl]amino}-1H-pyrazol-1-yl)-2-methylbutan-2-ol], 8.69.
In the case of `CC(n1ncc(Nc2ncc3cc(Cl)c([C@@H]4CCN(C)C[C@H]4F)cc3n2)c1Cl)C(C)(C)O` (single isomer, unassigned) [Ex-4.61, (R)(3S,4S) or (R)(3R,4R) or (S)(3S,4S) or (S)(3R,4R) 3-(5-chloro-4-{[6-chloro-7-(3-fluoro-1-methylpiperidin-4-yl)quinazolin-2-yl]amino}-1H-pyrazol-1-yl)-2-methylbutan-2-ol], the “LRRK2 pIC50” value is given as 8.80.
As for `CC(n1ncc(Nc2ncc3cc(Cl)c(C4CCN(C5COC5)CC4)cc3n2)c1Cl)C(C)(C)O` (single isomer, unassigned) [Ex-4.62, (8) or (R) 3-[5-chloro-4-({6-chloro-7-[1-(oxetan-3-yl)piperidin-4-yl]quinazolin-2-yl}amino)-1H-pyrazol-1-yl]-2-methylbutan-2-ol], the “LRRK2 pIC50” value is over 9.20.
Still for that read-out and setting: with `Cc1c(Nc2ncc3cc(Cl)c([C@@H]4CCN(C5COC5)C[C@H]4F)cc3n2)cnn1CC(C)(C)O` (single isomer, unassigned) [Ex-4.63, (3S,4S) or (3R,4R) 1-[4-({6-chloro-7-[3-fluoro-1-(oxetan-3-yl)piperidin-4-yl]quinazolin-2-yl}amino)-5-methyl-1H-pyrazol-1-yl]-2-methylpropan-2-ol] the figure was 8.83; with `Cc1c(Nc2ncc3cc(Cl)c([C@H]4CCN(C5COC5)C[C@@H]4F)cc3n2)cnn1CC(C)(C)O` (single isomer, unassigned) [Ex-4.64, (3S,4S) or (3R,4R) 1-[4-({6-chloro-7-[3-fluoro-1-(oxetan-3-yl)piperidin-4-yl]quinazolin-2-yl}amino)-5-methyl-1H-pyrazol-1-yl]-2-methylpropan-2-ol], 8.85; with `CC(n1ncc(Nc2ncc3cc(Cl)c([C@@H]4CCN(C5COC5)C[C@H]4F)cc3n2)c1Cl)C(C)(C)O` (single isomer, unassigned) [Ex-4.65, (R)(3S,4S) or (R)(3R,4R) or (S)(3S,4S) or (S)(3R,4R) 3-[5-chloro-4-({6-chloro-7-[3-fluoro-1-(oxetan-3-yl)piperidin-4-yl]quinazolin-2-yl}amino)-1H-pyrazol-1-yl]-2-methylbutan-2-ol], 8.91.
Regarding `CC(n1ncc(Nc2ncc3cc(Cl)c([C@H]4CCN(C)C[C@@H]4F)cc3n2)c1Cl)C(C)(C)O` (single isomer, unassigned) [Ex-4.66, (R)(3S,4S) or (R)(3R,4R) or (S)(3S,4S) or (S)(3R,4R) 3-(5-chloro-4-{[6-chloro-7-(3-fluoro-1-methylpiperidin-4-yl)quinazolin-2-yl]amino}-1H-pyrazol-1-yl)-2-methylbutan-2-ol], the “LRRK2 pIC50” value was 8.70.
Take `CC(n1ncc(Nc2ncc3cc(Cl)c([C@H]4CCN(C)C[C@@H]4F)cc3n2)c1Cl)C(C)(C)O` (single isomer, unassigned) [Ex-4.68, (R)(3S,4S) or (R)(3R,4R) or (S)(3S,4S) or (S)(3R,4R) 3-(5-chloro-4-{[6-chloro-7-(3-fluoro-1-methylpiperidin-4-yl)quinazolin-2-yl]amino}-1H-pyrazol-1-yl)-2-methylbutan-2-ol]: the “LRRK2 pIC50” value was determined as 8.92.

The experiment is the same for the next values; noted with them: G2019S LRRK2, 134 μM ATP (Km ATP), mean values; read-out: LRRK2 pIC50 (converted).
`Clc1cc2cnc(Nc3cnn(C4CC4)c3Cl)nc2cc1C1CCN(C2CCOC2)CC1` (single isomer, unassigned) [Ex-4.48, (S) or (R) 6-chloro-N-(5-chloro-1-cyclopropyl-1H-pyrazol-4-yl)-7-[1-(oxolan-3-yl)piperidin-4-yl]quinazolin-2-amine]: the IC50 is 0.891 nM.
As to `Clc1cc2cnc(Nc3cnn(C4CC4)c3Cl)nc2cc1C1CCN(C2CCOC2)CC1` (single isomer, unassigned) [Ex-4.49, (S) or (R) 6-chloro-N-(5-chloro-1-cyclopropyl-1H-pyrazol-4-yl)-7-[1-(oxolan-3-yl)piperidin-4-yl]quinazolin-2-amine], the IC50 was under 0.631 nM.
With `CC(n1ncc(Nc2ncc3cc(Cl)c(C4CCN(C5COC5)CC4)cc3n2)c1Cl)C(C)(C)O` (single isomer, unassigned) [Ex-4.67, (S) or (R) 3-[5-chloro-4-({6-chloro-7-[1-(oxetan-3-yl)piperidin-4-yl]quinazolin-2-yl}amino)-1H-pyrazol-1-yl]-2-methylbutan-2-ol], the IC50 is under 0.631 nM.
